This experiment concerns MV-4-11 cells. As to the kind of experiment: Gene expression microarray analysis (Affymetrix PrimeView) and GSEA. The class given is cell-based, human. On the set-up: RFU PODN (11730768_x_at) / Fold change /veh PODN (11730768_x_at) / RFU LINC00158 (11744669_a_at) / Fold change /veh LINC00158 (11744669_a_at) / RFU DUSP10 (11751237_a_at) / Fold change /veh DUSP10 (11751237_a_at) / RFU ID3 (11757404_x_at) / Fold change /veh ID3 (11757404_x_at) / RFU PLEKHG5 (11737974_s_at) / Fold change /veh PLEKHG5 (11737974_s_at) / RFU LRRC4B (11730491_at) / Fold change /veh LRRC4B (11730491_at) / RFU GIMAP4 (11747438_a_at) / Fold change /veh GIMAP4 (11747438_a_at) / RFU KRT8 (11758183_x_at) / Fold change /veh KRT8 (11758183_x_at) / RFU CNN1 (11734310_a_at) / Fold change /veh CNN1 (11734310_a_at) / RFU VPS37D (11726825_at) / Fold change /veh VPS37D (11726825_at) / RFU C10orf10 (11716522_x_at) / Fold change /veh C10orf10 (11716522_x_at) / RFU KIR2DL2 /// KIR2DL4 /// KIR2DL5A /// KIR2DL5B /// KIR2DS1 /// KIR2DS2 /// KIR2DS3 /// KIR2DS4 /// KIR3DL3 /// KIR3DL3 /// KIR3DS1 (11738374_at) / Fold change /veh KIR2DL2 /// KIR2DL4 /// KIR2DL5A /// KIR2DL5B /// KIR2DS1 /// KIR2DS2 /// KIR2DS3 /// KIR2DS4 /// KIR3DL3 /// KIR3DL3 /// KIR3DS1 (11738374_at) / RFU C1QL1 (11718748_at) / Fold change /veh C1QL1 (11718748_at) / RFU TMPRSS4 (11747572_a_at) / Fold change /veh TMPRSS4 (11747572_a_at) / RFU HAMP (11756126_x_at) / Fold change /veh HAMP (11756126_x_at) / RFU RNFT2 (11725882_a_at) / Fold change /veh RNFT2 (11725882_a_at) / RFU NR4A2 (11747474_a_at) / Fold change /veh NR4A2 (11747474_a_at) / RFU ABCC12 (11746883_a_at) / Fold change /veh ABCC12 (11746883_a_at) / RFU TMEM136 (11760407_x_at) / Fold change /veh TMEM136 (11760407_x_at) / RFU CLDN22 /// WWC2 (11732394_at) / Fold change /veh CLDN22 /// WWC2 (11732394_at) / RFU HLA-DPB1 (11760878_x_at) / Fold change /veh HLA-DPB1 (11760878_x_at) / RFU SPINT1 (11716480_a_at) / Fold change /veh SPINT1 (11716480_a_at) / RFU GAP43 (11754022_s_at) / Fold change /veh GAP43 (11754022_s_at) / RFU A4GNT (11735810_at) / Fold change /veh A4GNT (11735810_at) / RFU PRB3 (11715151_x_at) / Fold change /veh PRB3 (11715151_x_at) / RFU TUBB4B (11761932_at) / Fold change /veh TUBB4B (11761932_at) / RFU CAPN14 (11732068_a_at) / Fold change /veh CAPN14 (11732068_a_at) / RFU TMCC2 (11721928_a_at) / Fold change /veh TMCC2 (11721928_a_at) / RFU IRGQ (11745062_a_at) / Fold change /veh IRGQ (11745062_a_at) / RFU FAM174B (11720279_a_at) / Fold change /veh FAM174B (11720279_a_at) / RFU TMPRSS4 (11748680_a_at) / Fold change /veh TMPRSS4 (11748680_a_at) / RFU FAM212B (11763350_a_at) / Fold change /veh FAM212B (11763350_a_at) / RFU PLEKHG5 (11743358_a_at) / Fold change /veh PLEKHG5 (11743358_a_at) / RFU ZSCAN30 (11745921_a_at) / Fold change /veh ZSCAN30 (11745921_a_at) / RFU CMKLR1 (11741424_a_at) / Fold change /veh CMKLR1 (11741424_a_at) / RFU LOC101060620 /// MAPK8IP1 (11723275_at) / Fold change /veh LOC101060620 /// MAPK8IP1 (11723275_at) / RFU SPTSSB (11747773_x_at) / Fold change /veh SPTSSB (11747773_x_at) / RFU PRSS12 (11739890_at) / Fold change /veh PRSS12 (11739890_at) / RFU BIN1 (11741810_x_at) / Fold change /veh BIN1 (11741810_x_at) / RFU WNT11 (11732464_a_at) / Fold change /veh WNT11 (11732464_a_at) / RFU C10orf10 (11716521_a_at) / Fold change /veh C10orf10 (11716521_a_at) / RFU C5orf56 (11738089_at) / Fold change /veh C5orf56 (11738089_at) / RFU CYB561 (11721691_x_at) / Fold change /veh CYB561 (11721691_x_at) / RFU ANKRD19P (11752326_a_at) / Fold change /veh ANKRD19P (11752326_a_at) / RFU OR2T12 /// OR2T33 /// OR2T8 (11738714_s_at) / Fold change /veh OR2T12 /// OR2T33 /// OR2T8 (11738714_s_at) / RFU VCAN (11748164_a_at) / Fold change /veh VCAN (11748164_a_at) / RFU JSRP1 (11732532_at) / Fold change /veh JSRP1 (11732532_at) / RFU KRTAP10-11 (11738290_x_at) / Fold change /veh KRTAP10-11 (11738290_x_at) / RFU MYO3A (11730013_a_at) / Fold change /veh MYO3A (11730013_a_at) / RFU EBF3 (11725865_a_at) / Fold change /veh EBF3 (11725865_a_at) / RFU CAMK2N1 (11719241_x_at) / Fold change /veh CAMK2N1 (11719241_x_at) / RFU C5orf56 (11738088_a_at) / Fold change /veh C5orf56 (11738088_a_at) / RFU OLFML3 (11715873_a_at) / Fold change /veh OLFML3 (11715873_a_at) / RFU LOC100653217 /// NTM (11731650_a_at) / Fold change /veh LOC100653217 /// NTM (11731650_a_at) / RFU MAPK11 (11762145_a_at) / Fold change /veh MAPK11 (11762145_a_at) / RFU FIZ1 (11724087_x_at) / Fold change /veh FIZ1 (11724087_x_at) / RFU OASL (11726364_x_at) / Fold change /veh OASL (11726364_x_at) / RFU SOX15 (11748057_x_at) / Fold change /veh SOX15 (11748057_x_at) / RFU CD79A (11719716_a_at) / Fold change /veh CD79A (11719716_a_at) / RFU HIST1H1D (11736915_at) / Fold change /veh HIST1H1D (11736915_at) / RFU CASKIN2 (11723855_a_at) / Fold change /veh CASKIN2 (11723855_a_at) / RFU LOC730098 (11760151_x_at) / Fold change /veh LOC730098 (11760151_x_at) / RFU OR4N2 (11742367_at) / Fold change /veh OR4N2 (11742367_at) / RFU PRRT2 (11749266_a_at) / Fold change /veh PRRT2 (11749266_a_at) / RFU SNX32 (11753110_a_at) / Fold change /veh SNX32 (11753110_a_at) / RFU CDHR5 (11726645_a_at) / Fold change /veh CDHR5 (11726645_a_at) / RFU RCAN1 (11760418_a_at) / Fold change /veh RCAN1 (11760418_a_at) / RFU FAM167A (11723789_a_at) / Fold change /veh FAM167A (11723789_a_at) / RFU FAM26E (11764081_at) / Fold change /veh FAM26E (11764081_at) / RFU ISYNA1 (11749810_s_at) / Fold change /veh ISYNA1 (11749810_s_at) / RFU ACY1 (11761880_at) / Fold change /veh ACY1 (11761880_at) / RFU 11764098_at / Fold change /veh 11764098_at / RFU SAMD14 (11745864_x_at) / Fold change /veh SAMD14 (11745864_x_at) / RFU NPB (11741838_a_at) / Fold change /veh NPB (11741838_a_at) / RFU TMPRSS6 (11731388_a_at) / Fold change /veh TMPRSS6 (11731388_a_at) / RFU KRTAP10-2 (11738614_at) / Fold change /veh KRTAP10-2 (11738614_at) / RFU ARHGAP8 /// PRR5-ARHGAP8 (11727945_x_at) / Fold change /veh ARHGAP8 /// PRR5-ARHGAP8 (11727945_x_at) / RFU KRTAP5-7 /// NADSYN1 (11734609_at) / Fold change /veh KRTAP5-7 /// NADSYN1 (11734609_at) / RFU RASL12 (11751679_a_at) / Fold change /veh RASL12 (11751679_a_at) / RFU CDKN2B (11736163_a_at) / Fold change /veh CDKN2B (11736163_a_at) / RFU PRF1 (11729649_at) / Fold change /veh PRF1 (11729649_at) / RFU, ZNF638 /// ZNF638-IT1 / Fold change vs veh, ZNF638 /// ZNF638-IT1 / RFU, PANK3 / Fold change vs veh, PANK3 / RFU, SH3YL1 / Fold change vs veh, SH3YL1 / RFU, ZEB2 / Fold change vs veh, ZEB2 / RFU, NRIP1 / Fold change vs veh, NRIP1 / RFU, PTTG1IP / Fold change vs veh, PTTG1IP / RFU, CAPN2 / Fold change vs veh, CAPN2 / RFU, MED14 / Fold change vs veh, MED14 / RFU, SNORA58 / Fold change vs veh, SNORA58 / RFU, C1orf63 / Fold change vs veh, C1orf63 / RFU, LRRFIP1 / Fold change vs veh, LRRFIP1 / RFU, NDUFAF7 / Fold change vs veh, NDUFAF7 / RFU, SLC12A2 / Fold change vs veh, SLC12A2 / RFU, IBTK / Fold change vs veh, IBTK / RFU, ESF1 / Fold change vs veh, ESF1 / Fold change vs veh, TMEM50B / RFU, TAOK1 / Fold change vs veh, TAOK1 / RFU, ACBD3 / Fold change vs veh, ACBD3 / RFU, TMA16 / Fold change vs veh, TMA16 / RFU, RWDD3 / Fold change vs veh, RWDD3 / RFU, BCAT1 / Fold change vs veh, BCAT1 / RFU, EDEM3 / Fold change vs veh, EDEM3 / RFU, TMEM33 / Fold change vs veh, TMEM33 / RFU, WDR75 / Fold change vs veh, WDR75 / RFU, AHCTF1 / Fold change vs veh, AHCTF1 / RFU, TFRC / Fold change vs veh, TFRC / RFU, ZDHHC17 / Fold change vs veh, ZDHHC17 / RFU, NOM1 / Fold change vs veh, NOM1 / RFU, ARL8B / Fold change vs veh, ARL8B / RFU, ZBTB11 / Fold change vs veh, ZBTB11 / RFU, TAMM41 / Fold change vs veh, TAMM41 / RFU, KIAA1704 /// LOC100996395 / Fold change vs veh, KIAA1704 /// LOC100996395 / RFU, ING1 / Fold change vs veh, ING1 / RFU, TRMT61B / Fold change vs veh, TRMT61B / RFU, FUBP3 / Fold change vs veh, FUBP3 / RFU, TP53 / Fold change vs veh, TP53 / RFU, TNKS2 / Fold change vs veh, TNKS2 / RFU, ZFP14 / Fold change vs veh, ZFP14 / RFU, ACTR2 / Fold change vs veh, ACTR2 / RFU, PPP3R1 / Fold change vs veh, PPP3R1 / RFU, PIK3R1 / Fold change vs veh, PIK3R1 / RFU, HNRNPA1 / Fold change vs veh, HNRNPA1 / RFU, RNF170 / Fold change vs veh, RNF170 / RFU, ZNF28 / Fold change vs veh, ZNF28 / RFU, RNGTT / Fold change vs veh, RNGTT / RFU, OGT / Fold change vs veh, OGT / RFU, BRD1 / Fold change vs veh, BRD1 / RFU, MARS / Fold change vs veh, MARS / RFU, ZNF655 / Fold change vs veh, ZNF655 / RFU, FAHD1 / Fold change vs veh, FAHD1 / RFU, BDP1 / Fold change vs veh, BDP1 / RFU, LRRCC1 / Fold change vs veh, LRRCC1 / RFU, ARID1A / Fold change vs veh, ARID1A / RFU, ZNF146 / Fold change vs veh, ZNF146 / RFU, ZNF330 / Fold change vs veh, ZNF330 / RFU, GPN3 / Fold change vs veh, GPN3 / RFU, C9orf123 / Fold change vs veh, C9orf123 / RFU, N4BP2L2 / Fold change vs veh, N4BP2L2 / RFU, ARFIP1 / Fold change vs veh, ARFIP1 / RFU, FAM179B / Fold change vs veh, FAM179B / RFU, BCL10 / Fold change vs veh, BCL10 / RFU, UHRF1BP1L / Fold change vs veh, UHRF1BP1L / RFU, BET1 / Fold change vs veh, BET1 / RFU, CNOT2 / Fold change vs veh, CNOT2 / RFU, ZNF268 / Fold change vs veh, ZNF268 / Fold change vs veh, ZNF507 / RFU, DGCR2 / Fold change vs veh, DGCR2 / RFU, WDSUB1 / Fold change vs veh, WDSUB1 / Fold change vs veh, HSP90B1 /// MIR3652 / RFU, ADSS / Fold change vs veh, ADSS / RFU, GK / Fold change vs veh, GK / RFU, ZNF148 / Fold change vs veh, ZNF148 / RFU, TAF9 / Fold change vs veh, TAF9 / RFU, SLC1A5 / Fold change vs veh, SLC1A5 / RFU, SLMO2 / Fold change vs veh, SLMO2 / RFU, ABCC4 / Fold change vs veh, ABCC4 / RFU, LOC101060439 /// RAP1B / Fold change vs veh, LOC101060439 /// RAP1B / RFU, RFX7 / Fold change vs veh, RFX7 / RFU, GTPBP10 / Fold change vs veh, GTPBP10 / RFU, CNEP1R1 / Fold change vs veh, CNEP1R1 / RFU, BIVM-ERCC5 /// ERCC5 / Fold change vs veh, BIVM-ERCC5 /// ERCC5 / RFU, ILF3 / Fold change vs veh, ILF3 / RFU 11762660_at / Fold change /veh 11762660_at / RFU VCAN (11757783_s_at) / Fold change /veh VCAN (11757783_s_at) / RFU DDX43 (11728927_at) / Fold change /veh DDX43 (11728927_at) / RFU KRT8 (11758188_x_at) / Fold change /veh KRT8 (11758188_x_at) / RFU NKD1 (11759106_at) / Fold change /veh NKD1 (11759106_at) / RFU SRD5A1 (11742802_a_at) / Fold change /veh SRD5A1 (11742802_a_at) / RFU TPSAB1 /// TPSB2 (11721975_s_at) / Fold change /veh TPSAB1 /// TPSB2 (11721975_s_at) / RFU GSTM3 (11746129_a_at) / Fold change /veh GSTM3 (11746129_a_at) / RFU IL23R (11737362_x_at) / Fold change /veh IL23R (11737362_x_at) / RFU TMEM51 (11727254_a_at) / Fold change /veh TMEM51 (11727254_a_at) / RFU PIWIL2 (11732686_x_at) / Fold change /veh PIWIL2 (11732686_x_at) / RFU ORM1 (11744905_x_at) / Fold change /veh ORM1 (11744905_x_at) / RFU CCDC152 (11743942_at) / Fold change /veh CCDC152 (11743942_at) / RFU ECM1 (11717891_a_at) / Fold change /veh ECM1 (11717891_a_at) / RFU IL23R (11748794_a_at) / Fold change /veh IL23R (11748794_a_at) / RFU TNFAIP8L3 (11732012_x_at) / Fold change /veh TNFAIP8L3 (11732012_x_at) / RFU MBOAT4 (11741988_at) / Fold change /veh MBOAT4 (11741988_at) / RFU 11764193_at / Fold change /veh 11764193_at / RFU TMEM53 (11763286_at) / Fold change /veh TMEM53 (11763286_at) / RFU MAGEB2 (11727129_at) / Fold change /veh MAGEB2 (11727129_at) / RFU TMEM200A (11744735_a_at) / Fold change /veh TMEM200A (11744735_a_at) / RFU CCDC152 (11751479_a_at) / Fold change /veh CCDC152 (11751479_a_at) / RFU FAM211A (11726209_a_at) / Fold change /veh FAM211A (11726209_a_at) / RFU RGS16 (11746705_a_at) / Fold change /veh RGS16 (11746705_a_at) / RFU VCAN (11755009_s_at) / Fold change /veh VCAN (11755009_s_at) / RFU RHOB (11743442_s_at) / Fold change /veh RHOB (11743442_s_at) / RFU RGS16 (11720943_a_at) / Fold change /veh RGS16 (11720943_a_at) / RFU RGS16 (11720944_at) / Fold change /veh RGS16 (11720944_at) / RFU, VPS4B / Fold change vs veh, VPS4B / RFU, CREB1 / Fold change vs veh, CREB1 / RFU, DNAJC13 / Fold change vs veh, DNAJC13 / RFU, GNAQ / Fold change vs veh, GNAQ / RFU, CDK5R1 / Fold change vs veh, CDK5R1 / RFU, ZRANB3 / Fold change vs veh, ZRANB3 / RFU, CUL4A / Fold change vs veh, CUL4A / RFU, CCNY / Fold change vs veh, CCNY / RFU, UFL1 / Fold change vs veh, UFL1 / RFU, COG3 / Fold change vs veh, COG3 / RFU, DIAPH2 / Fold change vs veh, DIAPH2 / RFU, SKA2 / Fold change vs veh, SKA2 / RFU, AFF3 / Fold change vs veh, AFF3 / RFU, LMF1 / Fold change vs veh, LMF1 / RFU, IPO11 / Fold change vs veh, IPO11 / RFU, DFFB / Fold change vs veh, DFFB / RFU, FOXP1 / Fold change vs veh, FOXP1 / RFU, CARD8 / Fold change vs veh, CARD8 / RFU, STRN3 / Fold change vs veh, STRN3 / RFU, ADK / Fold change vs veh, ADK / RFU, RASSF2 / Fold change vs veh, RASSF2 / RFU, WIPF1 / Fold change vs veh, WIPF1 / RFU, LARP1B / Fold change vs veh, LARP1B / RFU, RASA1 / Fold change vs veh, RASA1 / RFU, RB1 / Fold change vs veh, RB1 / RFU, PPFIA1 / Fold change vs veh, PPFIA1 / RFU, MAT2A / Fold change vs veh, MAT2A / RFU, CCT5 / Fold change vs veh, CCT5 / RFU, WDR92 / Fold change vs veh, WDR92 / RFU, CUX1 / Fold change vs veh, CUX1 / RFU, TTC7A / Fold change vs veh, TTC7A / RFU, TMEM135 / Fold change vs veh, TMEM135 / RFU, DEPTOR / Fold change vs veh, DEPTOR / RFU, CPM / Fold change vs veh, CPM / RFU, DNAJB6 / Fold change vs veh, DNAJB6 / RFU, CACNA2D3 / Fold change vs veh, CACNA2D3 / RFU, DTX4 / Fold change vs veh, DTX4 / RFU, TFCP2 / Fold change vs veh, TFCP2 / RFU, GMCL1 /// GMCL1P1 / Fold change vs veh, GMCL1 /// GMCL1P1 / RFU, AEBP2 / Fold change vs veh, AEBP2 / RFU, SNHG1 /// SNORD22 /// SNORD25 /// SNORD26 /// SNORD27 /// SNORD28 /// SNORD29 /// SNORD31 / Fold change vs veh, SNHG1 /// SNORD22 /// SNORD25 /// SNORD26 /// SNORD27 /// SNORD28 /// SNORD29 /// SNORD31 / Fold change (Aza/veh), C12orf56 (ProbeSet 11735607_a_at) / Fold change (ACY-1035/veh), C12orf56 (ProbeSet 11735607_a_at) / Fold change (Aza/veh), FGFR1OP (ProbeSet 11751329_s_at) / Fold change (ACY-1035/veh), FGFR1OP (ProbeSet 11751329_s_at) / Fold change (Aza/veh), VPS36 (ProbeSet 11739960_a_at) / Fold change (ACY-1035/veh), VPS36 (ProbeSet 11739960_a_at) / RFU SYPL1 (11715823_x_at) / Fold change /veh SYPL1 (11715823_x_at) / RFU IGFBP7 (11715501_s_at) / Fold change /veh IGFBP7 (11715501_s_at) / RFU REEP3 (11722064_at) / Fold change /veh REEP3 (11722064_at) / RFU IGLL1 (11728026_x_at) / Fold change /veh IGLL1 (11728026_x_at): dose or concentration left out as unconfirmed. The settings on record: MV-4-11 cells, 48 hours.

`Nc1ncn([C@@H]2O[C@H](CO)[C@@H](O)[C@H]2O)c(=O)n1` [azacitidine]: the “Fold change /veh SPINT1 (11716480_a_at)” value amounted to 1.00.

For the origin of these results see publication PMC5218480 (PLoS ONE, 2017).
